Experimental data: patent US10857128B2, “Methods and compositions for treating inflammatory diseases” (Helmholtz Zentrum München Deutsches Forschungszentrum für …, priority 2017, dated 2020)
Where two headings read alike, the source gives them in different places.

What was measured:
Format in all cases: cell-based
[1] = system: CCL17 secretion of human Hodgkin lymphoma KM-H2 cells; test: CCL17 secretion bioassay with KM-H2 cells (ELISA); conditions: different concentrations, 24 h
Description: Human T cell line KM-H2. The human Hodgkin lymphoma T cell line (KM-H2) was purchased from the Leibniz Institute DSMZ-German Collection of Microorganisms and Cell Cultures, Braunschweig, Germany. 3-5×10^6 KM-H2 cells were grown in 4 mL RPMI 1640 per well in 6-well-plates (Nunc, Wiesbaden, Germany). All eukaryotic cells were cultured in 5% CO2 at 37° C. (HeraCell 240 and Heraeus BDD 6220, Thermo Fisher Scientific, Waltham, USA). Viability of cells after treatment with bacterial supernatants was assessed by trypan blue, 7-AAD and CellTiter-Blue® staining. (FIG. 9A-C)
Quantification of CCL17 and cytokines in eukaryotic cell culture supernatants. CCL17 was quantified in cell culture supernatants of KM-H2 cells using ELISA reagent Quantikine CCL17/TARC, (R&D Systems, Minneapolis, USA) according to the manufacturer's instructions (ELISA reader MRXII, Thermo Fisher Scientifc, Waltham, USA).
Bioassays for screening for immune modulatory activity in probiotic supernatants. Two biological assays based on down-modulation of costimulatory molecules on human DCs, and of CCL17-secretion by a human Hodgkin lymphoma T cell line (KM-H2) were set up. […]
Similarly, 200 μL supernatants were added to 3-5×10^6 KM-H2 cells for 24 h. Supernatants were collected from KM-H2 by centrifugation and stored at −80° C. until quantification of CCL17. […]

[2] = system: costimulatory molecules of LPS-stimulated human dendritic cells; test: Costimulatory molecules on LPS-stimulated human monocyte-derived dendritic cells (flow cytometry); conditions: Dendritic cell, 24 h, LPS 0.1 μg/ml, D-amino acid 10 μM, mean ± SD of three experiments, relative to LPS-induced expression
Description: Generation of human monocyte-derived dendritic cells. Peripheral venous blood was obtained from healthy volunteers aged between 20 and 50 years after informed consent. Individuals with allergic disease, acute infection or taking any medication 20 days prior to blood sampling or any history of smoking (personal interview) were excluded prior to blood sampling. All experiments were conducted according to the principles expressed in the Declaration of Helsinki.
(§1) Peripheral blood mononuclear cells (PBMC) were isolated from heparinized whole blood by density gradient centrifugation (2000 rpm, 22° C., 20 min) (Biocoll, Biochrom AG, Berlin, Germany). […] Purity and viability of DCs was assessed by flow cytometry (FIG. 9A-C).
Costimulatory molecules on human DCs. The following primary monoclonal antibodies were used: CD83 fluorescein isothiocyanate (FITC); CD1a phycoerythrin (PE); CD86-FITC; CD80-PE; CD14 allophycocyanine (APC); CD40-APC; CD3-peridinin chlorophyll protein (PerCP); HLA-DR-PerCP; mouse immunoglobulins G1 (IgG1) mouse immunoglobulins G1 (IgG1) κ were used as isotype controls using the corresponding fluorochromes (all purchased from BD Biosciences, Heidelberg, Germany). To account for donor dependent variability of DC surface markers, all data were normalized to the expression induced by LPS which was set to 100% after subtraction of background values (FACS Canto, FACS DIVA software, Version 5.0.3, BD Biosciences, Heidelberg, Germany). Murine DC subsets and CD4^+ T cells. Single cell suspensions of splenocytes were obtained by filtering spleens through a 70 μm strainer. Samples were stained with CD3-PB (1:200, Biolegend, San Diego, USA), CD4-APC-H7 (BD, 1:400), CD11c-APC-Cy7 (1:100), Mhc-II-Percp-Cy5 (1:100), CD11b-FITC (1:100), CD80-AF647, CD40-APC (1:100). For intracellular cytokines, total spleen cells were stimulated with anti-CD3 (4 μg/mL, BD Bioscience, Heidelberg, Germany) and anti-CD28 (30 ng/mL, BD Bioscience, Heidelberg, Germany) for 16 h. 1×10^6 of total lung cells were stimulated for 16 h with MACSiBead particles coated with anti-CD3 and anti-CD28 using the T cell activation/expansion kit (Miltenyi Biotec, Bergisch Gladbach, Germany) in TexMACS medium (Miltenyi Biotec) according to the manufactures recommendations. Prior to staining, cells were treated with monensin (0.7 μL/mL, BD Golgi Stop, BD Bioscience, Heidelberg, Germany) for 6 h at 37° C. and intracellularly stained for II-4-PE (1:100, eBioscience, Vienna, Austria according to the manufacturer's protocols. Intracellular staining for Foxp3 was performed by using the Foxp3/Transcription Factor Staining buffer set (eBiosciences, Vienna, Austria) according to the manufacturer's recommendations.
Bioassays for screening for immune modulatory activity in probiotic supernatants. Two biological assays based on down-modulation of costimulatory molecules on human DCs, and of CCL17-secretion by a human Hodgkin lymphoma T cell line (KM-H2) were set up. Human immature DCs were matured with 0.1 μg/mL lipopolysaccharide (LPS) from E. coli (Sigma-Aldrich, St. Louis, USA) in the presence or absence of 200 μL bacteria free supernatants for 24 h followed by flow cytometric analysis of costimulatory molecules.

human LPS treated DCs = test: Cytokine secretion of human DCs (multiplex assay); conditions: for IFN-g / IL-5 / IL-10 / IL-12: 200 μl supernatant or amino acid 10 μM, 14 h
Description: as §1
[…] For probiotic supernatants, blank CDM1 was used as medium control. […] IL-5, IFN-gamma, IL-12, and IL-10, were quantified by a multiplex assay (Milliplex Human Cytokine Immunoassay, Millipore GMbH Schalbach, Germany) as described by the manufacturer.

N[C@H](Cc1c[nH]c2ccccc12)C(=O)O [D-tryptophan]
immune activity of synthetic tryptophan isomers in the CCL17 bioassay [1]: dose dependent immune activity | activity at 10 µM ([2]; read-out: Percentage of CD40 expressing mature DCs): 15.2 ± 6.5% | activity at 10 µM ([2]; read-out: Percentage of CD80 expressing mature DCs): 12.1 ± 1.7% | activity at 10 µM ([2]; read-out: Percentage of CD83 expressing mature DCs): 7.6 ± 3.3% | activity at 10 µM ([2]; read-out: Percentage of CD86 expressing mature DCs): 24.1 ± 2.7% | activity at 10 µM ([2]; read-out: Percentage of HLA-DR expressing mature DCs): 88.9 ± 3% | IL-10 in DC cultures (human LPS treated DCs; highly enriched DCs): strongly induced | LPS-induced IFN-g, IL-12 and IL-5 in DC cultures (human LPS treated DCs; highly enriched DCs): lowered | Ratio IL-5/IFN-g (human LPS treated DCs; with LPS 0.1 μg/ml): 0.018 | Ratio IL-10/IL-12 (human LPS treated DCs; with LPS 0.1 μg/ml): 0.232 | IFN-g (human LPS treated DCs; with LPS 0.1 μg/ml): 1129.50 pg/mL | IL-5 (human LPS treated DCs; with LPS 0.1 μg/ml): 20.60 pg/mL | IL-10 (human LPS treated DCs; with LPS 0.1 μg/ml): 202.50 pg/mL | IL-12 (human LPS treated DCs; with LPS 0.1 μg/ml): 871.90 pg/mL | Ratio IL-5/IFN-g (human LPS treated DCs; without LPS): 0.470 | Ratio IL-10/IL-12 (human LPS treated DCs; without LPS): 0.690 | IFN-g (human LPS treated DCs; without LPS): 21.90 pg/mL | IL-5 (human LPS treated DCs; without LPS): 10.30 pg/mL | IL-10 (human LPS treated DCs; without LPS): 56.90 pg/mL | IL-12 (human LPS treated DCs; without LPS): 82.50 pg/mL
